Key:
[1] = biological target: T1, Ephrin type-A receptor 6 (Homo sapiens) (UniProt Q9UF33); test: Inhibition of EPHA6 (unknown origin) at 0.5 uM relative to control
T1 sequence (whole entry): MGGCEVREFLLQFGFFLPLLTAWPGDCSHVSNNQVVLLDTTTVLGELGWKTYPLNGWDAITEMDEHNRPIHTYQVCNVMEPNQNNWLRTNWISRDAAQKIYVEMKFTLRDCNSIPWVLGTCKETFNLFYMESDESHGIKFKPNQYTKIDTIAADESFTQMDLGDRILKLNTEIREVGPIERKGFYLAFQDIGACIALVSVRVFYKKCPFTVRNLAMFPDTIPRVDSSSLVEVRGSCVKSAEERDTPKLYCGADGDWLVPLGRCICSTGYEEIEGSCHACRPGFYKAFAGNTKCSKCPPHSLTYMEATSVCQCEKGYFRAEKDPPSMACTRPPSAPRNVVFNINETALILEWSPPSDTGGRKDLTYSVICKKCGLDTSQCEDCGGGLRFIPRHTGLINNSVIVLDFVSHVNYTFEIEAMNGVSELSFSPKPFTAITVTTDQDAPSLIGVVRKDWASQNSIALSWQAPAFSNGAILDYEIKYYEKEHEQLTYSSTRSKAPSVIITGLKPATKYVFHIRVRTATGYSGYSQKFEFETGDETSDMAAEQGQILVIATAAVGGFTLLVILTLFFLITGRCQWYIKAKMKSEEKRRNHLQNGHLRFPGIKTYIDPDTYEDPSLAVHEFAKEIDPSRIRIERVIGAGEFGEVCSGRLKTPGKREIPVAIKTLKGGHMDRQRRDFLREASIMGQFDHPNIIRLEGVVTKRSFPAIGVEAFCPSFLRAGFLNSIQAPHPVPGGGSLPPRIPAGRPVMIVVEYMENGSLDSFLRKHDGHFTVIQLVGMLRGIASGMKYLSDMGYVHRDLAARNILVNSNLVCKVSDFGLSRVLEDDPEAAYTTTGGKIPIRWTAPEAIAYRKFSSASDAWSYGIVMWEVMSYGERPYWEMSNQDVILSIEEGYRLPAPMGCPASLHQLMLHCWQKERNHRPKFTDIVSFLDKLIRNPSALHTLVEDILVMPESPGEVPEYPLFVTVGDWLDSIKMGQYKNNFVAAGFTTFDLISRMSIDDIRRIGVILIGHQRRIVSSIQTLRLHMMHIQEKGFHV

[2] = biological target: T2, Ephrin type-A receptor 8 (Homo sapiens) (UniProt P29322); test: Inhibition of EPH-A8 (unknown origin) at 0.5 uM relative to control
T2 sequence (whole entry): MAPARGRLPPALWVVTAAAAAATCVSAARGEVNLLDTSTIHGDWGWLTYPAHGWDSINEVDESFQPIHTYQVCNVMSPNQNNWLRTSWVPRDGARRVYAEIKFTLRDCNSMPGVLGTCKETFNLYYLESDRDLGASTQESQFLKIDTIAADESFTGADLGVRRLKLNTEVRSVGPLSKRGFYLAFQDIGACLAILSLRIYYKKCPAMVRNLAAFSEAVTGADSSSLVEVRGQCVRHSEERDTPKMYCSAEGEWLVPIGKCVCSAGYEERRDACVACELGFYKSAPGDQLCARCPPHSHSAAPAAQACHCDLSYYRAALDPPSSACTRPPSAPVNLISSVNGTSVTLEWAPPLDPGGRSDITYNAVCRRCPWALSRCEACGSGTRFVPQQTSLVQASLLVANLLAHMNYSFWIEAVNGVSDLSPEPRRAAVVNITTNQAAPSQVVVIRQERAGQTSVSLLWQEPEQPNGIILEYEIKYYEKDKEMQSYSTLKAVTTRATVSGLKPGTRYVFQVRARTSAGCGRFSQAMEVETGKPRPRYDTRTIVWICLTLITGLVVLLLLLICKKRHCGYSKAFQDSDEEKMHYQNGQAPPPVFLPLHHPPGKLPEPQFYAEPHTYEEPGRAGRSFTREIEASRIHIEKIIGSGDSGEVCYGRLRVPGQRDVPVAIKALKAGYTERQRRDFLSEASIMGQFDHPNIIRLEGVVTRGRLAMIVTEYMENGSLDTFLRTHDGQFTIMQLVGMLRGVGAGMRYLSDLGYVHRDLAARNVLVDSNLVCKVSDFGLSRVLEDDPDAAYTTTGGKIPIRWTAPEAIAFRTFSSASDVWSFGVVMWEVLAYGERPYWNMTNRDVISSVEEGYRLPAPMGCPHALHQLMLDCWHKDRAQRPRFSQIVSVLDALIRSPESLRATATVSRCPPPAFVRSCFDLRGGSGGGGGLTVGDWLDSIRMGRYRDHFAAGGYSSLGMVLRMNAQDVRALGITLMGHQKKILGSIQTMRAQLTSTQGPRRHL

[3] = biological target: T3, Tyrosine-protein kinase receptor TYRO3 (Homo sapiens) (UniProt Q06418); test: Inhibition of TYRO3 (unknown origin) at 0.5 uM relative to control
T3 sequence (whole entry): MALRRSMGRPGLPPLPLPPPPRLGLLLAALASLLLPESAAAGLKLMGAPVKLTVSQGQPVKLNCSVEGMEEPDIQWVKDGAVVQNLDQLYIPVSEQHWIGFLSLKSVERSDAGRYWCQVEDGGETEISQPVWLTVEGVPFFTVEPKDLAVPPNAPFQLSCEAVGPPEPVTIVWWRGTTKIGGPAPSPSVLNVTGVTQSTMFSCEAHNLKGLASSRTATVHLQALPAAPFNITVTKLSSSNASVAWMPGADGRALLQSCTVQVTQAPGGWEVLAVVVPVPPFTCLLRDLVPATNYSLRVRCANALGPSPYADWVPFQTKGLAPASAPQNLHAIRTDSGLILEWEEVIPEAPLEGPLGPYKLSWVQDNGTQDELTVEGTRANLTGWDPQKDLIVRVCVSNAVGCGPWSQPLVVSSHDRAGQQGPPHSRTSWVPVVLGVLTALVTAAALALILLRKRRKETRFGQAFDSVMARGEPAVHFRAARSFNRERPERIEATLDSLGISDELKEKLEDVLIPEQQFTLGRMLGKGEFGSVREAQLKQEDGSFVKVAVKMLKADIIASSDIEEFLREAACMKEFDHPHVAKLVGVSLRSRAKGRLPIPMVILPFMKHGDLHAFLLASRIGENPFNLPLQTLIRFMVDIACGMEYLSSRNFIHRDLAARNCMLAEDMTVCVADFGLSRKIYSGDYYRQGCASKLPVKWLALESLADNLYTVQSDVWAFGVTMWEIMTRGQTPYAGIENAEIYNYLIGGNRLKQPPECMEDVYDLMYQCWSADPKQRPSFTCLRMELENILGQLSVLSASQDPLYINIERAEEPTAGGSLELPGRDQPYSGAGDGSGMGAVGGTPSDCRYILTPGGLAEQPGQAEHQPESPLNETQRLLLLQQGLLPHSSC

Row | Compound | inhibition [1] | inhibition [2] | inhibition [3]
1 | CNC(=O)c1cc(Oc2ccc(NC(=O)c3n[nH]nc3-c3ccc(F)cc3)cc2)ccn1 | 27% | – | –
2 | CNC(=O)c1cc(Oc2ccc(NC(=O)c3nc(SC)[nH]c3-c3ccc(F)cc3)cc2)ccn1 | – | 96% | 87%
3 | CSc1nc(C(=O)Nc2ccc(Oc3cc4cnn(C)c4cc3Br)cc2)c(-c2ccc(F)cc2)o1 | 19% | 25% | –
4 | CNC(=O)c1cc(Oc2ccc(NC(=O)c3nc(SC)oc3-c3ccc(F)cc3)cc2)ccn1 | 69% | – | 82%
5 | CNC(=O)c1cc(Oc2ccc(NC(=O)c3nc(SC)n(CCN(C)C)c3-c3ccc(F)cc3)cc2)ccn1 | 58% | 57% | 52%
6 | CNC(=O)c1cc(Oc2ccc(NC(=O)c3nc(SC)oc3-c3ccc(F)cc3)cc2F)ccn1 | 69% | 42% | 70%

Next, values leading:

Row | inhibition [1] | inhibition [2] | inhibition [3] | Compound
7 | 62% | 58% | 59% | CNC(=O)c1cc(Oc2ccc(NC(=O)c3nc(NC)sc3-c3ccc(F)cc3)cc2)ccn1
8 | 67% | 50% | 65% | CNC(=O)c1cc(Oc2ccc(NC(=O)c3nc(C(F)(F)F)sc3-c3ccc(F)cc3)cc2)ccn1
9 | – | – | 70% | CNC(=O)c1cc(Oc2ccc(NC(=O)c3nc(S(C)(=O)=O)sc3-c3ccc(F)cc3)cc2)ccn1

Reference: ChEMBL document CHEMBL4806968, “Hipk inhibitors and methods of use thereof” (2020)
